Experimental data: article PMC10008561 (Nature Communications, 2023)
“And” between values parts separate entries of the source, which are not always exact repeats. Identical values can stand only once. Like-named read-outs stand apart in the source and are kept apart here.

Key:
human KOR [1] = molecular target: T1, human KOR (Homo sapiens, UniProt P41145, Q115N); assay: cell-based; details: HEK-293T
T1 construct: expressed in transfected cells; host or cells: HEK 293T (ATCC, CRL-3216)

human KOR [2] = molecular target: T2, human KOR (Homo sapiens, UniProt P41145); assay: cell-based
T2 sequence (P41145 whole entry): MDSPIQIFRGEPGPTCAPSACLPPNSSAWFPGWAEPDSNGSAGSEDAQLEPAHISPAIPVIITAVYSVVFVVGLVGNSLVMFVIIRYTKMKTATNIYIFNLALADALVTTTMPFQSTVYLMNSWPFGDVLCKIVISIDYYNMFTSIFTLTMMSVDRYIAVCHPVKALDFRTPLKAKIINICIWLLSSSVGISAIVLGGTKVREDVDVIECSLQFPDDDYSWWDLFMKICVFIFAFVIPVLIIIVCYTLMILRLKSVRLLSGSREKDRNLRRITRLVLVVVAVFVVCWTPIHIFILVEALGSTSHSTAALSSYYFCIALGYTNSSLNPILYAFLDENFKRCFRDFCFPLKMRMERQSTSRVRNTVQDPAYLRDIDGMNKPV

human KOR [3] = molecular target: T3, human KOR (Homo sapiens, UniProt P41145, W287A); assay: cell-based; details: HEK-293T
T3 construct: expressed in transfected cells; host or cells: HEK 293T (ATCC, CRL-3216)
T3 sequence (P41145 whole entry W287A): as the sequence (P41145 whole entry) above, with W287A counted along it

human KOR (Gz) = molecular target: T4, human KOR (Gz) (Homo sapiens, UniProt P41145); assay: cell-based; details: HEK-293T
T4 construct: expressed in transfected cells; host or cells: HEK293T
T4 sequence (P41145 whole entry): as the sequence (P41145 whole entry) above

human KOR [4] = molecular target: T1, human KOR; assay: cell-based; details: HTLA
human KOR [5] = molecular target: T2, human KOR; assay: cell-based; remark: listed apart in the source
human KOR [6] = molecular target: T3, human KOR; assay: cell-based; details: HTLA
KOR Q115N [7] = molecular target: T5, KOR Q115N (Homo sapiens, UniProt P41145, Q115N); assay: cell-based; design: expressed in transfected cells; host or cells: HEK 293T (ATCC, CRL-3216); details: read-out: cAMP response (Figure S4C), KOR Q115N, Log [Drug], replicate values
Target sequence in this assay (P41145 whole entry Q115N): as the sequence (P41145 whole entry) above, with Q115N counted along it

human KOR [8] = molecular target: T2, human KOR; assay: cell-based; design: expressed in transfected cells; host or cells: HEK 293T (ATCC, CRL-3216); details: HEK-293T
KOR [9] = type: cell-based, human
human KOR (Gustducin) [10] = molecular target: T6, human KOR (Gustducin) (Homo sapiens, UniProt P41145); assay: cell-based
T6 construct: expressed in transfected cells; host or cells: HEK293T
T6 sequence (P41145 whole entry): as the sequence (P41145 whole entry) above

human KOR (Gi3) = molecular target: T7, human KOR (Gi3) (Homo sapiens, UniProt P41145); assay: cell-based; details: HEK-293T
T7 construct: expressed in transfected cells; host or cells: HEK293T
T7 sequence (P41145 whole entry): as above

KOR Q115N [11] = molecular target: T5, KOR Q115N; assay: cell-based; design: TEV cleavage site (C); tTA transcription factor (C); expressed in transfected cells; host or cells: HTLA cells; details: read-out: Tango response (Figure S4C), KOR Q115N, Log [Drug], replicate values
Target sequence in this assay (P41145 whole entry Q115N): as the sequence (P41145 whole entry) above, with Q115N counted along it
Target sequence in this assay (P32121 whole entry partner): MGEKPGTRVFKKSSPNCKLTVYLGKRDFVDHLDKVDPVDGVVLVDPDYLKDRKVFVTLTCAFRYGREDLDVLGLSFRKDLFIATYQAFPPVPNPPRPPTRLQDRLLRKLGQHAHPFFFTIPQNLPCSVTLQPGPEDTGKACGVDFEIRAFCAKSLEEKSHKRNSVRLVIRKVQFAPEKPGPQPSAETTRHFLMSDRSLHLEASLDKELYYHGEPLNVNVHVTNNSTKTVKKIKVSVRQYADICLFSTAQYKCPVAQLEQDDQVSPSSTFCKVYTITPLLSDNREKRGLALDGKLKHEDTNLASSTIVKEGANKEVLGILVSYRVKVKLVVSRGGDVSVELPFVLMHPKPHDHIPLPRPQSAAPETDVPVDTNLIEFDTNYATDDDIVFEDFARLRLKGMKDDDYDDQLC

human KOR (GoB) = molecular target: T8, human KOR (GoB) (Homo sapiens, UniProt P41145); assay: cell-based; details: HEK-293T
T8 construct: expressed in transfected cells; host or cells: HEK293T
T8 sequence (P41145 whole entry): as the sequence (P41145 whole entry) above

human KOR (β-arrestin 1) = molecular target: T9, human KOR (β-arrestin 1) (Homo sapiens, UniProt P41145); assay: cell-based; details: HEK-293T
T9 construct: expressed in transfected cells; host or cells: HEK293T
T9 sequence (P41145 whole entry): as above

human KOR (Gi2) = molecular target: T10, human KOR (Gi2) (Homo sapiens, UniProt P41145); assay: cell-based; details: HEK-293T
T10 construct: expressed in transfected cells; host or cells: HEK293T
T10 sequence (P41145 whole entry): as above

human KOR (β-arrestin 2) = molecular target: T11, human KOR (β-arrestin 2) (Homo sapiens, UniProt P41145); assay: cell-based; details: HEK-293T
T11 construct: expressed in transfected cells; host or cells: HEK293T
T11 sequence (P41145 whole entry): as above

human KOR (Gi1) = molecular target: T12, human KOR (Gi1) (Homo sapiens, UniProt P41145); assay: cell-based
T12 construct: expressed in transfected cells; host or cells: HEK293T
T12 sequence (P41145 whole entry): as above

KOR [12] = assay: Bias factor, Gz vs β-arrestin2 (BRET), U50,488 as reference; type: cell-based, human
human KOR [13] = molecular target: T2, human KOR; assay: cell-based; design: expressed in transfected cells; host or cells: HEK 293T (ATCC, CRL-3216); details: HTLA
human KOR (GoA) = molecular target: T13, human KOR (GoA) (Homo sapiens, UniProt P41145); assay: cell-based; details: HEK-293T
T13 construct: expressed in transfected cells; host or cells: HEK293T
T13 sequence (P41145 whole entry): as above

human KOR (Gustducin) [14] = details: cited from earlier work
[15] = read-out: Gz (Figure 5A concentration-response, replicate values)
[16] = read-out: cAMP response (Figure S4C)
[17] = read-out: βArrestin1 (Figure 5A concentration-response, replicate values)
[18] = read-out: Tango response (Figure S4C)

T1 sequence (P41145 whole entry Q115N): as the sequence (P41145 whole entry) above, with Q115N counted along it

Compound: COC(=O)N1CCN(C(=O)Cc2ccc(Cl)c(Cl)c2)C2C(N3CCCC3)CCCC21 (centres unmarked) [WMS-X600]
- Emax (human KOR [1]): 103 ± 1%
- increase of potency for G protein signaling (human KOR [2]): 10 fold
- loss of potency in G protein activation (human KOR [2]): 82 fold
- Emax (human KOR [3]): 98 ± 5%
- Emax (human KOR (Gz)): 97.7%
- activation at 0.001 µM (human KOR (Gz); [15]): 86.2%
- activation at 0.01 µM (human KOR (Gz); [15]): 100%
- activation at 0.1 µM (human KOR (Gz); [15]): 101%
- activation at 1 µM (human KOR (Gz); [15]): 95.2%
- activation at 10 µM (human KOR (Gz); [15]): 97.8%
- Emax (human KOR [4]): 110 ± 6%
- increase of potency for arrestin signaling (human KOR [5]): 5 fold
- loss of potency in arrestin recruitment (human KOR [5]): 232 fold
- Emax (human KOR [6]): 108 ± 7%
- activation at 1 µM (KOR Q115N [7]; M -6): 99.1%
- activation at […] (KOR Q115N [7]; M -6.5): 107%
- activation at 0.1 µM (KOR Q115N [7]; M -7): 105%
- activation at […] (KOR Q115N [7]; M -7.5): 104%
- activation at 0.01 µM (KOR Q115N [7]; M -8): 103%
- activation at […] (KOR Q115N [7]; M -8.5): 100%
- activation at 0.001 µM (KOR Q115N [7]; M -9): 97.8%
- activation at […] (KOR Q115N [7]; M -9.5): 101%
- activation at 0.0001 µM (KOR Q115N [7]; M -10): 92.8%
- activation at 31.62 pM (KOR Q115N [7]; M -10.5): 81.3%
- activation at 10 pM (KOR Q115N [7]; M -11): 56.3%
- activation at 3.162 pM (KOR Q115N [7]; M -11.5): 33.3%
- Emax (human KOR [8]): 95 ± 3%
- activation at 31.62 pM (human KOR [8]; [16]): 34.2%
- activation at 0.0001 µM (human KOR [8]; [16]): 56.7%
- activation at 0.001 µM (human KOR [8]; [16]): 78.9%
- activation at 0.01 µM (human KOR [8]; [16]): 101%
- activation at 0.1 µM (human KOR [8]; [16]): 103%
- activation at 1 µM (human KOR [8]; [16]): 91.1%
- activation at […] (human KOR [8]; [16]): 68.9% and 97.5% and 102% and 90.6%
- ΔΔLog τ/KA (95% confidence interval) (KOR [9]): 1 (0.81-1.19)
- Emax% (human KOR (Gustducin) [10]): 94%
- Emax (human KOR (Gustducin) [10]; HEK-293T): 93.6%
- Emax (human KOR (Gi3)): 99.2%
- activation at 10 µM (KOR Q115N [11]; M -5): 120%
- activation at […] (KOR Q115N [11]; M -5.5): 124%
- activation at 1 µM (KOR Q115N [11]; M -6): 123%
- activation at […] (KOR Q115N [11]; M -6.5): 107%
- activation at 0.1 µM (KOR Q115N [11]; M -7): 112%
- activation at 0.01 µM (KOR Q115N [11]; M -8): 116%
- activation at […] (KOR Q115N [11]; M -9.5): 72.6%
- activation at 0.0001 µM (KOR Q115N [11]; M -10): 78.7%
- activation at 31.62 pM (KOR Q115N [11]; M -10.5): 43.5%
- Emax (human KOR (GoB)): 99.2%
- Emax (human KOR (β-arrestin 1)): 93.8%
- activation at 0.01 µM (human KOR (β-arrestin 1); [17]): 33.5%
- activation at 1 µM (human KOR (β-arrestin 1); [17]): 86.2%
- activation at 10 µM (human KOR (β-arrestin 1); [17]): 91.8%
- Emax (human KOR (Gi2)): 99.3%
- Emax (human KOR (β-arrestin 2)): 102 ± 6%
- Emax% (human KOR (Gi1)): 101.3%
- Emax (human KOR (Gi1); HEK-293T): 84 ± 8%
- bias factor towards arrestin pathway (KOR [12]): 8.6
- Emax (human KOR [13]): 96 ± 5%
- activation at 0.001 µM (human KOR [13]; [18]): 78.7%
- activation at 0.1 µM (human KOR [13]; [18]): 116%
- activation at 1 µM (human KOR [13]; [18]): 112%
- activation at 10 µM (human KOR [13]; [18]): 123%
- activation at […] (human KOR [13]; [18]): 43.5% and 72.6% and 125%
- Emax (human KOR (GoA)): 99.8%

Compound: dynorphin A 1–13
- activity at Gustducin (human KOR (Gustducin) [14]): nearly inactive
